Experimental data taken from patent publication US5856166A, “Streptomyces proteases and methods for improved secretion of recombinantly-expressed proteins” (Cangene Corporation, priority 1994, dated 1999).
Where a SMILES comes first, the peptide text is derived from it. [ ]: non-standard residue; d: D form. The star is where a group is joined. pNA = O=[N+]([O-])c1ccc(N*)cc1; AMC = Cc1cc(=O)oc2cc(N*)ccc12; βNA = c1ccc2cc(N*)ccc2c1; Boc = CC(C)(C)OC(=O)*

Target: T1, Tap (tripeptidyl aminopeptidase) (Streptomyces lividans, UniProt Q54410)
T1 construct: An autolytic tripeptide cleavage removing APA after signal peptide removal would yield the N-terminal found for the secreted protease; made in house; host or cells: Streptomyces lividans 66 (wild-type strain, native secreted enzyme purified from the broth)
T1 sequence (Q54410 40-537): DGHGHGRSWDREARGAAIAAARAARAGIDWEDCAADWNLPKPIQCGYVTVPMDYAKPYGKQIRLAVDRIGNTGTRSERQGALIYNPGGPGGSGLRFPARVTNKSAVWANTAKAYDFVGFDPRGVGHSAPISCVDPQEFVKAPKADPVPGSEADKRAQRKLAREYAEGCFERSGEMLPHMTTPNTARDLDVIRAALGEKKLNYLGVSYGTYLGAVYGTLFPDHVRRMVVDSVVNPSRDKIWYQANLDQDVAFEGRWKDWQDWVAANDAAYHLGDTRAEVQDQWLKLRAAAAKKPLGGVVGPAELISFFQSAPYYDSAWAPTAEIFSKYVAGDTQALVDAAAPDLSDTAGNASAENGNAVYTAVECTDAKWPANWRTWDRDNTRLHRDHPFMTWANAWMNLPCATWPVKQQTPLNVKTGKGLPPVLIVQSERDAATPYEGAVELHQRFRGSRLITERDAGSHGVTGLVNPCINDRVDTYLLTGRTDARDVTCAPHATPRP
Assay: Release of reporter group from synthetic substrates by pure Tap
Format: biochemical, S. lividans 66
Protocol: The enzyme was also active when APM-pNA, APA-AMC, APS-bNA, GPL-bNA, and SPA-bNA were used as substrates. […] The enzyme only released the reporter group from substrates with a free amino terminal.
The assay was conducted in a 96 well microtiter plate. To each well in the assay, 50 ul 100 mM Tris-HCl, pH 8.0, were added followed by 25 ul 3.2 mM APA-pNA. 25 ul of Tap were added to the wells and the absorbance was read at 405 nm. The assays were incubated at 37° C. for 2 hours. The absorbance was read at 405 nm. The activity (release of p-nitroaniline) was calculated from the change in absorbance.

Compound | release of reporter group when used as substrate of Tap
C[C@H](N)C(=O)Nc1ccc([N+](=O)[O-])cc1 [A-pNA, L-alanine p-nitroanilide] | did not release the reporter group
C[C@H](N)C(=O)N[C@@H](C)C(=O)Nc1ccc([N+](=O)[O-])cc1 [AA-pNA, L-alanyl-L-alanine p-nitroanilide] (H-Ala-Ala-pNA) | did not release the reporter group
C[C@H](N)C(=O)N[C@@H](C)C(=O)N1CCC[C@H]1C(=O)N[C@@H](C)C(=O)Nc1ccc([N+](=O)[O-])cc1 [AAPA-pNA, L-alanyl-L-alanyl-L-prolyl-L-analine p-nitroanilide] (H-AAPA-pNA) | did not release the reporter group
Cc1cc(=O)oc2cc(NC(=O)[C@H](C)NC(=O)[C@@H]3CCCN3C(=O)[C@H](C)N)ccc12 [APA-AMC, L-alanyl-L-prolyl-L-alanine 7-amino-4-methylcoumarin] (H-Ala-Pro-Ala-{AMC}) | active
C[C@H](N)C(=O)N1CCC[C@H]1C(=O)N[C@@H](C)C(=O)Nc1ccc([N+](=O)[O-])cc1 [APApNA, L-alanyl-L-prolyl-L-alanine p-nitroanilide] (H-Ala-Pro-Ala-pNA) | releases p-nitroaniline
CSCC[C@H](NC(=O)[C@@H]1CCCN1C(=O)[C@H](C)N)C(=O)Nc1ccc([N+](=O)[O-])cc1 [APM-pNA, L-alanyl-L-prolyl-L-methione p-nitroanilide] (H-Ala-Pro-Met-pNA) | active
C[C@H](N)C(=O)N1CCC[C@H]1C(=O)N[C@@H](CO)C(=O)Nc1ccc2ccccc2c1 [APS-bNA, L-alanyl-L-prolyl-L-serine beta-naphthylamide] (H-Ala-Pro-Ser-βNA) | active
C[C@H](NC(=O)OC(C)(C)C)C(=O)N[C@@H](C)C(=O)N1CCC[C@H]1C(=O)N[C@@H](C)C(=O)Nc1ccc([N+](=O)[O-])cc1 [Boc-AAPA-pNA, N-t-butoxycarbonyl L-alanyl-L-alanyl-L-prolyl-L-alanine p-nitroanilide] (Boc-AAPA-pNA) | did not release the reporter group
C[C@H](NC(=O)[C@@H]1CCCN1C(=O)[C@H](C)NC(=O)OC(C)(C)C)C(=O)N[C@@H](CCCNC(=N)N)C(=O)N[C@@H](CO)C(=O)N1CCC[C@H]1C(=O)N[C@@H](C)C(=O)Nc1ccc2ccccc2c1 [Boc-APARSPA-bNA, L-alanyl-L-prolyl-L-analyl-L-arginyl-L-seryl-L-prolyl-L-alanine beta-naphthylamide] (Boc-APARSPA-βNA) | did not release the reporter group
N=C(N)NCCC[C@H](NC(=O)[C@H](Cc1ccccc1)NC(=O)[C@H]1CCCN1)C(=O)Nc1ccc([N+](=O)[O-])cc1 [D-PFR-pNA, D-prolyl-L-phenylalanyl-L-arginine p-nitroanilide] (H-[dP]-Phe-Arg-pNA) | did not release the reporter group
NCC(=O)N1CCC[C@H]1C(=O)Nc1ccc([N+](=O)[O-])cc1 [GP-pNA, Glycyl-L-proline p-nitroanilide] (H-Gly-Pro-pNA) | did not release the reporter group
CC(C)C[C@H](NC(=O)[C@@H]1CCCN1C(=O)CN)C(=O)Nc1ccc2ccccc2c1 [GPL-bNA, Glycyl-L-prolyl-L-leucine beta-napthylamide] (H-Gly-Pro-Leu-βNA) | active
CC(C)C[C@H](N)C(=O)Nc1ccc([N+](=O)[O-])cc1 [L-pNA, L-leucine p-nitroanilide] | did not release the reporter group
